Values quoted from earlier work, collected in PubChem BioAssay AID1259409 (Chemical Carcinogenesis Research Information System (CCRIS), 2018).

Tested on: rodent chemically induced tumor inhibition, incidence and multiplicity
Test: CCRIS tumor inhibitor studies

Structure (SMILES)	tumour outcome (control, treated, inhibition, significance) (Carcinogen: N-BUTYL-N-(4-HYDROXYBUTYL)NITROSAMINE, 3817-11-6, Dose [Inhibitor]: 1.5 MMOL/KG DIET DAILY FOR 159 D STARTING 1 WK AFTER THE FINAL CARCINOGEN DOSE (STUDY DURATION: 216 D), Route [Inhibitor]: ORAL, Species: MOUSE, Strain/Sex: DBF1/MALE, Target Tissue: Type of Lesion: URINARY BLADDER: TRANSITIONAL CELL CARCINOMA, Dose [Carcinogen]: 7.5 MG 1/WK FOR 8 WK, Promoter: NONE USED)	tumour outcome (control, treated, inhibition, significance) (Carcinogen: N-BUTYL-N-(4-HYDROXYBUTYL)NITROSAMINE, 3817-11-6, Dose [Inhibitor]: 1.5 MMOL/KG IN DIET FOR 159 D STARTING 1 WK AFTER LAST CARCINOGEN DOSE (STUDY DURATION: 216 D), Route [Inhibitor]: ORAL, Species: MOUSE, Strain/Sex: BDF/MALE, Target Tissue: Type of Lesion: URINARY BLADDER: TRANSITIONAL CELL CARCINOMA, Dose [Carcinogen]: 7.5 MG 1/WK FOR 8 WK, Promoter: NONE USED)	tumour outcome (control, treated, inhibition, significance) (Carcinogen: 2-AMINO-1-METHYL-6-PHENYL-1H-IMIDAZO[4,5-B]PYRID INE [105650-23-5], Dose [Inhibitor]: 0, 400 PPM IN DIET FOR DURATION OF STUDY BEGINNING 1 D PRIOR TO CARCINOGEN TREATMENT (STUDY DURATION: 21 WK), Route [Inhibitor]: ORAL, Species: RAT, Strain/Sex: SPRAGUE-DAWLEY/FEMALE, Target Tissue: Type of Lesion: MAMMARY GLAND: DUCTAL CARCINOMA, Dose [Carcinogen]: 85 MG/KG BW 4X/WK FOR 2 WK)	tumour outcome (control, treated, inhibition, significance) (Carcinogen: 7, 12-DIMETHYLBENZ(A)ANTHRACENE [57-97-6], Dose [Inhibitor]: 5 MG/KG BW TWICE WEEKLY BEGINNING 3 D BEFORE FIRST CARCINOGEN DOSE FOR 13 WK (STUDY DURATION: 13 WK), Route [Inhibitor]: SUBCUTANEOUS, Species: RAT, Strain/Sex: SPRAGUE-DAWLEY/FEMALE, Target Tissue: Type of Lesion: MAMMARY GLAND: TUMOR, Dose [Carcinogen]: 10 MG THREE TIMES BETWEEN POSTNATAL DAYS 45-59)	tumour outcome (control, treated, inhibition, significance) (Carcinogen: AZOXYMETHANE (25843-45-2), Dose [Inhibitor]: 0, 0.04% 1 WK AFTER END OF DEXTRAN SODIUM SULFATE TREATMENT FOR 14 WKS (STUDY DURATION: 17 WKS), Route [Inhibitor]: DIET, Species: MOUSE, Strain/Sex: CD-1/FEMALE (10,10)/(10,10), Target Tissue: Type of Lesion: COLON: ADENOMA, Dose [Carcinogen]: 10 MG/KG ONCE, Promoter: DEXTRAN SODIUM SULFATE (9011-18-1))	tumour outcome (control, treated, inhibition, significance) (Carcinogen: AZOXYMETHANE (25843-45-2), Dose [Inhibitor]: 0, 0.04% IN DIET 1 WK AFTER END OF DEXTRAN SODIUM SULFATE TREATMENT FOR 14 WKS (STUDY DURATION: 17 WKS), Route [Inhibitor]: DIET, Species: MOUSE, Strain/Sex: CD-1/FEMALE (10,10)/(10,10), Target Tissue: Type of Lesion: COLON: ADENOCARCINOMA, Dose [Carcinogen]: 10 MG/KG ONCE, Promoter: DEXTRAN SODIUM SULFATE (9011-18-1))	tumour outcome (control, treated, inhibition, significance) (Carcinogen: AZOXYMETHANE, 25843-45-2, Dose [Inhibitor]: 0, 200 PPM IN DIET FOR DURATION OF STUDY BEGINNING 1D PRIOR TO CARCINOGEN TREATMENT (STUDY DURATION: 30 WK), Route [Inhibitor]: ORAL, Species: MOUSE, Strain/Sex: ICR/MALE, Target Tissue: Type of Lesion: COLON: CARCINOMA, Dose [Carcinogen]: 10 MG/KG BW IN SALINE 1/WK FOR 6 WK, Promoter: NONE USED)	tumour outcome (control, treated, inhibition, significance) (Carcinogen: AZOXYMETHANE, 25843-45-2, Dose [Inhibitor]: 0, 400 PPM IN DIET FOR DURATION OF STUDY BEGINNING 1 D PRIOR TO CARCINOGEN TREATMENT (STUDY DURATION: 30 WK), Route [Inhibitor]: ORAL, Species: MOUSE, Strain/Sex: ICR/MALE, Target Tissue: Type of Lesion: COLON: CARCINOMA, Dose [Carcinogen]: 10 MG/KG BW IN SALINE 1/WK FOR 6 WK, Promoter: NONE USED)	tumour outcome (control, treated, inhibition, significance) (Carcinogen: N-BUTYL-N-(4-HYDROXYBUTYL)NITROSAMINE, 3817-11-6, Dose [Inhibitor]: 0, 100 PPM IN DIET FOR 12 WK BEGINNING POST CARCINOGEN TREATMENT (STUDY DURATION: 20 WK), Route [Inhibitor]: ORAL, Species: RAT, Strain/Sex: F344/MALE, Target Tissue: Type of Lesion: URINARY BLADDER: TRANSITIONAL CELL CARCINOMA, Dose [Carcinogen]: 0.05% IN DRINKING WATER FOR 8 WK, Promoter: NONE USED)	tumour outcome (control, treated, inhibition, significance) (Carcinogen: N-BUTYL-N-(4-HYDROXYBUTYL)NITROSAMINE, 3817-11-6, Dose [Inhibitor]: 0, 200 PPM IN DIET FOR 12 WK BEGINNING POST CARCINOGEN TREATMENT (STUDY DURATION: 20 WK), Route [Inhibitor]: ORAL, Species: RAT, Strain/Sex: F344/MALE, Target Tissue: Type of Lesion: URINARY BLADDER: TRANSITIONAL CELL CARCINOMA, Dose [Carcinogen]: 0.05% IN DRINKING WATER FOR 8 WK, Promoter: NONE USED)	tumour outcome (control, treated, inhibition, significance) (Carcinogen: N-BUTYL-N-(4-HYDROXYBUTYL)NITROSAMINE, 3817-11-6, Dose [Inhibitor]: 0, 400 PPM IN DIET FOR 12 WK BEGINNING POST CARCINOGEN TREATMENT (STUDY DURATION: 20 WK), Route [Inhibitor]: ORAL, Species: RAT, Strain/Sex: F344/MALE, Target Tissue: Type of Lesion: URINARY BLADDER: TRANSITIONAL CELL CARCINOMA, Dose [Carcinogen]: 0.05% IN DRINKING WATER FOR 8 WK, Promoter: NONE USED)	tumour outcome (control, treated, inhibition, significance) (Carcinogen: N-METHYL-N-NITROSOUREA [684-93-5], Dose [Inhibitor]: 5 MG/KG BW TWICE WEEKLY BEGINNING 5 D BEFORE FIRST CARCINOGEN DOSE FOR 27 WK (STUDY DURATION: 27 WK), Route [Inhibitor]: SUBCUTANEOUS, Species: RAT, Strain/Sex: SPRAGUE-DAWLEY/FEMALE, Target Tissue: Type of Lesion: MAMMARY GLAND: TUMOR, Dose [Carcinogen]: 50 MG/KG BW TWICE ON POSTNATAL DAYS 51 AND 58)
CC1=C(/C=C/C(C)=C/C=C/C(C)=C\C(=O)NCCO)C(C)(C)CCC1	29/98 (30%), 16/97 (17%), 43%, p<0.05	29/98 (30%), 16/97 (17%), 43%, p<0.05	–	–	–	–	–	–	–	–	–	–
CS(=O)(=O)Nc1ccc([N+](=O)[O-])cc1Oc1ccccc1	–	–	30/42 (71%), 19/37 (51%), 28.2%, not significant	23/24 (95.8%), 24/25 (96.0%), -0.2%, not significant	10/10 (100%), 6/10 (60%), 40%, p<0.05	10/10 (100%), 4/10 (40%), 60%, p<0.01	14/28 (50%), 12/37 (32%), 36%, not significant	14/28 (50%), 10/40 (25%), 50%, p<0.05	18/20 (90%), 12/20 (60%), 33%, not significant	18/20 (90%), 8/16 (50%), 44%, p<0.05	18/20 (90%), 5/19 (26%), 71%, p<0.0002	17/18 (94%), 10/18 (55.6%), 41%, p<0.05
